A melting point compilation (Tetko et al.; mined from patent text by program, amines drawn as free bases though some values may be those of a salt)

| SMILES | melting point |
| --- | --- |
| Cc1[nH]nc(NC2CCCCC2)c1C(=O)O | 162 to 163 °C |
| Cc1ccc2c(=O)[nH]c(N3CCN(CCO)CC3)cc2c1 | 236 to 237 °C |
| O=C(O)C1CC(=S)N(c2cc(C(F)(F)F)cc(C(F)(F)F)c2)C1 (configuration not stated) | 141 to 142 °C |
| COc1cccc(Cn2c(-c3cc(OC)c(OC)c(OC)c3)nc3ccccc32)c1 | 127 °C |
| CC(=O)NN[C@@H]1c2cc(C#N)ccc2OC(C)(C)[C@H]1O (relative stereo) | 209 to 210 °C |
| CCCCOc1cc(C)c(N=Nc2ccccc2)c(C)c1 | 47 to 47.5 °C |
| CC1=C(C(=C2SCSCS2)c2ccc(C)cc2)CN(C)O1 | 89 to 90 °C |
| COC(=O)c1c(SCc2ccc(OC)cc2)ncn1Cc1cc2c(cc1Cl)OCO2 | 123 °C |
| CCCc1ccn(-c2ccc(S(C)(=O)=O)cc2)c1-c1ccc(F)cc1 | 116 to 117 °C |
| O=Cc1ccc(Cl)cc1O | 47 to 48 °C |
| O=C(O)COc1cccc2c1OCc1sc(SCC(c3ccccc3)c3ccccc3)nc1-2 | 182 to 184 °C |
| O=C(Nc1cccc(-c2ccnc3c(C(=O)c4cccs4)cnn23)c1)c1cn[nH]c1 | 165 to 170 °C |
| Oc1nsc2c1CCCC2 | 157 to 158 °C |
| CCC(=O)NS(=O)(=O)c1ccc(-c2cc(-c3nc(-c4ccc(C(F)(F)F)cc4)cc(C(F)(F)F)n3)ccn2)s1 | 257 °C |
| N#Cc1ccc(N2C(=O)N(CC#CCO)C(CF)(CF)C2=O)cc1C(F)(F)F | 131 to 132 °C |
| CSc1nn2c(N(C)C)cc(C)nc2c1S(=O)(=O)c1ccccc1 | > 230 °C |
| CC1CCc2c(Cl)c(F)cc3c(=O)c(C(=O)O)cn1c23 (configuration not stated) | 297 to 298 °C |
| CCCCCCCCCc1ccc(-c2nc(C)c(C(C)=NNC(=N)N)s2)cc1 | 203 to 206 °C |
| O=c1cc(Sc2ccccc2)cc[nH]1 | 202 °C |
| CCOC(=O)CC1(NC(C)=O)Cc2ccccc2C1 | 72 to 73 °C |
| Clc1ccc(-c2cn([C@H]3CN4CCC3CC4)nn2)cc1 | 144 °C |
| COC(=O)CN(C)C(=S)c1cccc2c(Br)cccc12 | 85 to 86 °C |
| Cn1c(C(F)(F)F)cc(=O)n(-c2ccc3snc(CCl)c3c2)c1=O | 201 to 203 °C |
| CCNc1ccc(C2(C)C(=O)Nc3cc(Cl)cc(Cl)c3C2=O)cc1 (configuration not stated) | 197 to 198 °C |
| CC(C)(C)c1ccccc1N1CCC(N)=N1 | 114 °C |
| O=C(O)C1=Cc2cc(Cl)c(Oc3ccccc3)cc2OC1C(F)(F)F (configuration not stated) | 220 to 222 °C |

| SMILES | melting point |
| --- | --- |
| Cc1cc(NC(=O)NN(c2ccccc2)c2cccc(C(=N)N)c2)ccc1N1CCCCC1=O | > 300 °C |
| CN(C1CCN(Cc2cccs2)CC1)S(=O)(=O)c1ccc(Nc2nccc(Nc3ccc(F)cc3)n2)cc1 | 175 to 176 °C |
| CN(C)C(=C[N+](=O)[O-])NCc1ccc(Cl)nc1 | 124 to 125 °C |
| Nc1sc2c(c1C(=O)c1cccc(C(F)(F)F)c1)CCN(CCCc1ccccc1)C2 | 176 to 178 °C |
| O=C(O)C1=Cc2cc(-c3ccc(OC(F)(F)F)cc3)ccc2S(=O)(=O)CC1 | 284 to 285 °C |
| Cn1c(=O)c2c(Cl)cc(Cl)cc2n(Cc2ccccc2)c1=O | 166 to 169 °C |
| CSCCCn1c(C)c(C(=O)c2cccc(Cl)c2Cl)c2cccc(Br)c21 | 119 °C |
| NC(=O)c1ccc(-c2nn(Cc3ccccc3)c3ccccc23)o1 | 259 °C |
| Cc1noc(NS(=O)(=O)c2ccsc2C(=O)Nc2cccc(C(=O)O)c2)c1Br | 183 to 185 °C |
| O=[N+]([O-])C=Cc1cc(OCc2ccccc2)c(OCc2ccccc2)cc1[N+](=O)[O-] | 162 to 164 °C |
| Cc1nc(C(=O)N2CCCC2)c2n1-c1ccc(Cl)cc1C(c1ccccc1F)=NC2 | 220 to 221 °C |
| CN1CCC(c2c[nH]c3ccc(NC(=O)c4ccc(C#N)cc4)nc23)CC1 | 129 to 134 °C |
| COc1ccc(S(=O)(=O)C2(C(=O)NO)CCN(Cc3ccc(Cl)c(Cl)c3)CC2)cc1 | 192 to 195 °C |
| CSc1nc2c(c(=O)[nH]1)CC2 | 215 °C |
| CCC1C(=O)Nc2ccc3ccccc3c21 (configuration not stated) | 124 to 126 °C |
| COC(=O)c1ccc(C(=O)Nc2ccccc2)cc1 | 189 to 190 °C |
| CCc1c(Cl)cnn(C(C)(C)C)c1=O | 61.5 to 62.5 °C |
| Oc1ccc(C(=C(Cl)c2ccccc2)c2ccccc2)cc1 | 127 to 129 °C |
| O=C1C=CC(OC2CCCC2)N1S(=O)(=O)c1ccccc1 (configuration not stated) | 123 to 124 °C |
| CCOC(=O)c1cc(-c2ccccc2)nn1Cc1ccc(Cl)cc1Cl | 104 to 107 °C |
| CC(=O)SCCC(=O)N1C(C(=O)O)CC2CCCCC21 (configuration not stated) | 131 to 133 °C |
| CNC(=S)C1(c2cccnc2)OCCCS1 (configuration not stated) | 194 °C |
| O=C(NC(CO)(CO)CO)c1cc2ccnc(Cl)c2[nH]1 | 218 to 220 °C |
| O=C(CCC#Cc1ccccn1)Nc1ccc(Cl)cc1 | 110 to 111 °C |
| Cc1nc(N2CCN(Cc3cccc(F)c3)C2=O)sc1C(=O)NCc1ccccc1 | 155 to 156 °C |

Continued, values first:

| melting point | SMILES |
| --- | --- |
| 266 to 267 °C | Cc1ccc2nc3n(c(=O)c2c1)-c1ccccc1C3=O |
| 187 to 188 °C | CCOC(=O)C1=C(C)NC(C)=C(C(=O)OCC)C1c1ccccc1/C=C/c1ccccc1 |
| 172 to 174 °C | O=C(C1CCN(c2c(Cl)cncc2Cl)CC1)N1CCOCC1 |
| > 280 °C | CCOC(=O)c1cnc2cc(Br)c(F)cc2c1O |
| 191 °C | OC1CSC(Oc2cnccc2C(F)(F)F)C(O)C1O (configuration not stated) |
| 142 °C | Clc1ccc(-c2noc3ccc(CBr)cc23)cc1 |
| 186 to 188 °C | OC(c1ccccc1)(c1ncc[nH]1)c1ccccc1Cl (configuration not stated) |
| 121 to 126 °C | O=C(Nc1ccccc1O)C(F)(F)C(O)(Cn1cncn1)c1ccc(F)cc1F (configuration not stated) |
| 212 to 214 °C | Nc1ccc2c(-c3ccccc3)c([N+](=O)[O-])oc2c1 |
| 21 to 22 °C | Fc1ccc2sccc2c1 |
| 172 to 173 °C | Cc1oc(-c2ccccc2)nc1COc1ccc(Cn2cc(CCC(=O)O)c(-c3cccs3)n2)cc1 |
| 158 to 159 °C | COc1nc2ccccc2cc1NC(=O)N1CCN(c2cc(F)cc(F)c2)CC1 |
| 155 to 156 °C | Cc1oc(-c2ccccc2)nc1COc1ccccc1CO |
| 67 to 70 °C | COc1ccccc1NS(=O)(=O)c1ccc(COC2CCCCO2)cc1 (configuration not stated) |
| 129 °C | COC(=O)Nc1cc(F)c(C#N)cc1F |
| 63 to 66 °C | O=C(NCCCn1cncn1)c1ccco1 |
| 248 °C | Cc1nc(Cl)c2c(c1O)COC2C (configuration not stated) |
| 216 to 217 °C | CC(C)c1ccc2oc(=O)c(NC(=O)Nc3ccc(F)cc3F)c(-c3ccc(F)cc3)c2c1 |
| 153 to 155 °C | CC[C@H](C)[C@H](OCc1ccccc1)[C@H]1[C@H]([N+](=O)[O-])[C@@H]([C@@H](OCc2ccccc2)C(C)C)N[C@@H]1C(=O)NCC(=O)O |
| 248 to 249 °C | O=c1[nH]ncc2[nH]c(-c3ccc(OC(F)F)c(OC4CC4)c3)c(C3CC3)c12 |
| 187 to 189 °C | CC(C)(C)C1c2ccccc2-c2ccccc2N1S(=O)(=O)c1ccc(O)cc1 (configuration not stated) |
| 116 to 118 °C | CCCC(N(NC(=O)OC(C)(C)C)C(=O)c1cc(C)cc(C)c1)C(C)(C)C (configuration not stated) |
| 158 °C | COC(=O)CCC(=O)N(O)Cc1c(C)n(C(=O)c2ccc(Cl)cc2)c2ccc(OC)cc12 |
| 158 °C | COc1ccccc1OCC(O)CN1CCCC(Cn2c(=O)[nH]c3ccccc32)C1 (configuration not stated) |
| > 260 °C | CCc1nccn1-c1ccccc1C(=O)Nc1ccc(C(=O)N2CCC(F)(F)/C(=C\C(=O)NC3CC3)c3ccccc32)cc1 |
| > 250 °C | COc1ccccc1CN[C@H]1CCCN[C@H]1c1ccc2ccccc2c1 (relative stereo) |

| melting point | SMILES |
| --- | --- |
| 125 °C | CCC=Cc1nc2ccccc2n1Cc1ccc(C#N)cc1 |
| 138 to 139 °C | CC(=O)OC1C(OC(=O)C=Cc2ccccc2)C=C(C)C(=O)CC1(C)C (configuration not stated) |
| 163 to 164 °C | CC(C(=O)O)c1ccc2cc(OCc3csc(-c4ccccc4)n3)ccc2c1 (configuration not stated) |
| 131 to 133 °C | N#Cc1ccc(CBr)c2ccccc12 |
| 234 to 235 °C | O=C(O)c1cccc(-c2cccc(Oc3cc(Cl)cc(Cl)c3)n2)c1 |
| 153 to 155 °C | NC(=O)C1CCc2sc3ccccc3c2C1 (configuration not stated) |
| 62 to 63 °C | C=C(CN(Cc1ccccc1)Cc1ccccc1)C(=O)OC(C)(C)C |
| 153 to 154 °C | COC(=O)C1(NC(C)=O)CCc2cc(OC)ccc2C1 (configuration not stated) |
| 104 °C | CON(O)C(=O)c1ccccc1[N+](=O)[O-] |
| 148 to 150 °C | O=C(C=Cc1ccc(C(F)(F)F)cc1)C=Cc1ccc(C(F)(F)F)cc1 |
| 107 to 108 °C | CON=Cc1c(C(=O)OC)[nH]c2c(C)ccc(C)c12 |
| 91 to 93 °C | COC(=O)COc1ccc(OC)cc1NC(=O)c1ccc(OCCCCc2ccccc2)cc1 |
| 49 to 51 °C | CSC=CC(C)(C)C(=O)O |
| 225 °C | CCCC(=O)Nc1nn(COCC[Si](C)(C)C)c2cc(-c3ccc(SC)cc3)ccc12 |
| 205 to 206 °C | Cc1sc(C(N)=O)c2c1-c1c(cnn1Cc1ccccc1)CC2 |
| 136 °C | Nc1ccc(N=Nc2ccc([N+](=O)[O-])c(C(F)(F)F)c2)cc1 |
| 187 °C | COC(C)=CC(=O)Nc1cccc([N+](=O)[O-])c1 |
| 253 to 254 °C | O=c1[nH]c2cc(Cl)c(Cl)c(Cl)c2o1 |
| 116 to 118 °C | COc1cc2c(cc1Cl)CCN(C)CC2c1ccc(Br)cc1 (configuration not stated) |
| 272 to 275 °C | NC(=O)CN1C(=O)[C@@H](NC(=O)c2ccc(Cl)cc2)[C@H](c2ccccc2)Sc2ccccc21 (relative stereo) |
| 275 to 276 °C | COc1ccc2c(c1)-c1nn(CCO)c3cccc(c13)N2 |
| 142 °C | NC(=O)N[C@@H]1CN2C(=O)N(c3cc(Cl)nc(Cl)c3)C(=O)[C@@]2(Cc2ccc(OC(F)(F)F)cc2)C1 |
| 140 to 143 °C | Cc1cccc(C)c1-c1cc(O)c(SCc2ccccc2)c(=O)o1 |
| 49 to 53 °C | CCC[C@](CCO)(CCc1ccccc1)OCOc1ccc(-c2ccccc2)cc1 |
| 147 to 148 °C | Cc1cc(-c2cc(O)c(SCCc3ccccc3)c(=O)o2)ccc1OCc1ccccc1 |
